Structures can show the parent of a compound that is named as a salt.
Legend:
[1] = Dispersion stability in water (appearance); format: physicochemical; details: suspended in water at the same sorafenib concentration
From the text: Based on the drug loading capacity and particle size, three compositions were selected for in vitro anti-leukemic activity studies (in Example 3) and were named as Sora-NP-1 to Sora-NP-3 (Table 2). Among them, Sora-NP-1 had the smallest particle size with the lowest sorafenib loading capacity. […] This provides indirect evidence that sorafenib molecules were stably encapsulated in the interior of Sora-NP. The excellent dispersion stability of Sora-NP compositions would be beneficial for their clinical applications.

MV-4-11 cells = test: In vitro anti-leukemic activity, CellTiter-Glo assay, and median-effect combination index; format: cell-based; details: 3 days
Method: (§3) MOLM-14 and MV-4-11 cells (ATCC, USA) were maintained in RPMI 1640 media supplemented with 10% (v/v) fetal bovine serum (FBS) and 1% (v/v) penicillin/streptomycin. The cells seeded on white-walled 96-well plates (1×10^4 cells per well) were incubated in 100 μL of 10% FBS-supplemented media containing either sunitinib- or sorafenib-loaded nanoparticles and the respective free drugs at various concentrations. […] After treatment for 3 days, 100 μL of the CellTiter-Glo assay reagent was added to each well of the plates. After incubation for 10 min at 25° C., cellular luminescence was measured using a Tecan Infinite 200 microplate reader (Tecan Group, Switzerland). Results were expressed as percentages of the luminescence signal of analysed cells relative to untreated controls.

[2] = system: patient-derived AML cells named Leu 14; test: Patient-derived AML xenograft mouse model; format: in vivo
Method: All animal experiments were performed according to the protocols approved by IACUC at the Biological Resource Centre, Singapore. A pre-clinical patient-derived liquid xenograft mouse model was established based on a previous report (Z. Her, et al., J. Hematol. Oncol. 2017, 10, 162). Briefly, NOD-scid II2rg^−/− (NSG) newborn pups were sub-lethally irradiated at 1 Gy and engrafted with patient-derived AML cells named Leu 14. When the proportion of human CD45^+ cells in peripheral blood reached around 10-15%, the mice were randomly divided into 3 groups. The first group received intravenous injections of isotonic dextrose solution containing Sora-NP-1 at a sorafenib dose of 0.4 mg kg^−1 twice weekly for 4 weeks. For comparison, another group of mice received intravenous injections of free sorafenib solution prepared in saline-DMSO mixture (95:5, v/v) at an equivalent dose. […] At selected time points, the proportion of human CD45^+ cells in the peripheral blood, spleen and bone marrow was examined by flow cytometry analysis using a LSR II flow cytometer (BD Biosciences).

MOLM-14 cells = test: In vitro anti-leukemic activity, CellTiter-Glo assay, and median-effect combination index; details: 3 days
Method: as §3

HEK293 cells = test: In vitro cell viability assay (CellTiter-Glo), normal cells; format: cell-based, human; details: 72 h
Method: (§1) The human AML cell line HL60, human embryonic kidney cell line HEK293 and primary human umbilical vein endothelial (HUVEC) cells were purchased from the American Type Culture Collection (ATCC). The human AML cell lines NB4 was kindly donated by the Cancer Science Institute, Singapore. All the AML cells were cultured in RPMI 1640 medium supplemented with 10% fetal bovine serum (FBS) and maintained in density of 2×10^5 to 1×10^6 cells/mL. HEK293 cells were cultured in DMEM medium supplemented with 10% FBS while HUVEC cells were maintained in EBM™-2 Endothelial Cell Growth Basal Medium supplemented with endothelial cell growth medium SingleQuots™ supplements and growth factors. All the cells were maintained in a humid incubator with 5% CO2 at 37° C.
(§2) All cells (HL60, NB4, HEK293 and HUVEC cells) were seeded at 1×10^4 cells per […] per well in 96-well plates. […] After drug treatment, the cell viability was evaluated using the CellTiter-Glo™ Luminescent Cell Viability Assay Kit (Promega, Madison, Wis.) following the manufacturer's instructions. The luminescence from each well was measured using a Tecan Infinite microplate reader (Tecan Group, Switzerland). The final cell viability values were expressed as percentages derived from the luminescence intensity from the treated cells relative to untreated cells. […]

HUVEC cells = test: as above; format: cell-based, human; details: 72 h
Method: as §1, §2

NB4 cells = test: Quantitative evaluation of differentiation in AML cells (CD11b, CD14, CD15 by flow cytometry); format: cell-based, human; details: three days, ATRA, PMA (100 ng/mL), A3D8 (0.6 μg/mL), EGCG (38 μM), HA equivalent
Method: AML cells were seeded at 1×10^5 cells in 1 mL per well in 24-well plates and were incubated for 2 h with 5% CO2 at 37° C. […] ATRA (1 mM), PMA (100 ng/mL) and A3D8 (0.6 μg/mL) were included as positive controls. After three days of incubation, the cells were harvested and examined for signs of differentiation by assessing cell surface antigen expression. To label the cell surface antigens, the cells were suspended in PBS (pH 7.4) containing 0.2% (v/v) BSA and then incubated at 4° C. for 30 min with mouse anti-human FITC-conjugated CD11b, Cy7-conjugated CD14 and Cy5-conjugated CD15 antibodies (2 μg/mL each). Mouse IgG1 isotype antibody was used as control. After that, the cells were washed three times with PBS containing 0.2% (v/v) BSA and the level of antibody binding was determined by flow cytometry using a fluorescence-activated cell sorter BD LSR II (BD Biosciences, Calif.). Each measurement comprised of acquisition of at least 1×10^4 cells and the analyses were considered as informative when adequate numbers of events (>100) were collected in the enumeration gates. To quantify the percentage of antigen-expressing cells, the cells were defined to be positive for the antigens if they fell within the gating region pre-set to include <2% of untreated control cells.

[3] = equivalent sorafenib concentrations
[4] = equivalent sunitinib concentrations

CNC(=O)c1cc(Oc2ccc(NC(=O)Nc3ccc(Cl)c(C(F)(F)F)c3)cc2)ccn1 [free sorafenib, Sorafenib tosylate]
Appearance of dispersion in water [1]: heavily flocculated and eventually precipitated | order of effectiveness (anti-leukemic activity) (MV-4-11 cells; [3]): Sora-NP-1>Sora-NP-2>Sora-NP-3>free sorafenib | AML cell proliferation in the peripheral blood (human CD45+ cells) ([2]; i.v., sorafenib dose 0.4 mg kg^−1 twice weekly for 4 weeks, versus untreated control): only a slight delay of AML progression | time at which treated mice started to die ([2]; sorafenib dose 0.4 mg kg^−1): 12 to 14 days | cells eradicated / reduction of the cell viability (MOLM-14 cells; 200 nM sorafenib): ~14% | order of effectiveness (anti-leukemic activity) (MOLM-14 cells; [3]): Sora-NP-1>Sora-NP-2>Sora-NP-3>free sorafenib

CCN(CC)CCNC(=O)c1c(C)[nH]c(/C=C2\C(=O)Nc3ccc(F)cc32)c1C [free sunitinib, Sunitinib malate]
order of effectiveness (anti-leukemic activity) (MV-4-11 cells; [4]): Suni-NP-1>Suni-NP-2>free sunitinib>Suni-NP-3>Suni-NP-4 | order of effectiveness (anti-leukemic activity) (MOLM-14 cells; [4]): Suni-NP-1>Suni-NP-2>free sunitinib>Suni-NP-3>Suni-NP-4

Epigallocatechin-3-gallate [EGCG]
EGCG equivalent concentration with greater toxicity than HA-EGCG (B) (HEK293 cells): 76 µM | EGCG equivalent concentration range with greater toxicity than HA-EGCG (B) (HUVEC cells): 15 to 76 µM

CC1=C(/C=C/C(C)=C/C=C/C(C)=C/C(=O)O)C(C)(C)CCC1 [ATRA, all-trans retinoic acid]
differentiation marker expression (NB4 cells): greatest increase in the three antigen expression levels and the proportion of antigen-expressing cells

Reference: patent publication US20220047720A1, “CONJUGATES AND NANOPARTICLES OF HYALURONIC ACID AND EPIGALLOCATECHIN-3-O-GALLATE AND USES THEREOF” (Agency for Science, Technology and Research, priority 2018, published 2022)
